Activity calls are given as the source filed them. The rule behind the calls is not given here.

As a reminder, the IC50 is the midpoint of a concentration-inhibition curve.

Holding throughout (format): functional
Assay [1] in a line: Antioxidant activity assessed as ABTS radical scavenging activity.
Assay [2] deals with Radical scavenging activity. Put plainly: Antioxidant activity assessed as DPPH radical scavenging activity. Background: DPPH is a stable violet radical that fades when it is reduced.
Assay [3] in a line: Antioxidant activity assessed as inhibition of fenton reaction-induced pBR322 DNA single strand break by CAS assay.
Assay [4] can be described thus: Antioxidant activity assessed as inhibition of fenton reaction-induced pBR322 DNA single strand break by agarose gel electrophoresis.

For the molecule `CC1=CC(=O)[C@H](c2c(O)cc(/C=C/c3ccc(O)c(O)c3)oc2=O)[C@@H](c2ccc(O)c(O)c2)O1` [DAVALLIALACTONE], the IC50 in assay [1] came to 2.8 µM; in assay [2], 1.2 µM. In addition, the result in assay [3] and in assay [4] was Active.

On to `CC1=CC(=O)C2(O1)c1c(cc(/C=C/c3ccc(O)c(O)c3)oc1=O)OC2c1ccc(O)c(O)c1` (stereo not drawn), for which the outcome in assay [3] and in assay [4] was Active.

With `O=c1cc(O)cc([C@H]2c3c(cc(/C=C/c4ccc(O)c(O)c4)oc3=O)O[C@@H]2c2ccc(O)c(O)c2)o1`, the outcome in assay [3] and in assay [4] was Active.

For `CC(=O)/C=C(O)/C(=C\c1ccc(O)c(O)c1)c1c(O)cc(/C=C/c2ccc(O)c(O)c2)oc1=O`, the outcome in assay [3] and in assay [4] was Active.

As to `O=c1cc(O)cc(/C=C/c2ccc(O)c(O)c2)o1`, in assay [3], the result was Active. The result in assay [4] was inactive.

In the case of `O=c1oc2cc(/C=C/c3ccc(O)c(O)c3)oc(=O)c2c2cc(O)c(O)cc12`, the outcome in assay [3] and in assay [4] was Active.

Take `COC(=O)CC1=CC(=O)[C@H](c2c(O)cc(/C=C/c3ccc(O)c(O)c3)oc2=O)[C@@H](c2ccc(O)c(O)c2)O1` [BAUMIN]: the IC50 in assay [1] came to 11.7 µM; in assay [2], 7.5 µM. Also, the result in assay [3] and in assay [4] was Active.

For the origin of these results see ChEMBL document CHEMBL1221351, “Styrylpyrones from the medicinal fungus Phellinus baumii and their antioxidant properties” (Bioorg Med Chem Lett, 2010).
